This is an account of results in patent US20230158042A1, “COMBINATION CANCER THERAPY WITH PENTAAZA MACROCYCLIC RING COMPLEX AND HORMONE THERAPY AGENT” (Galera Labs, LLC, priority 2020, published 2023).

The structures appear in SMILES notation.

This assay has as its system T47D-MnSOD^K68Q cells. Description: Ki-67 staining in T47D-MnSOD^K68Q cells. It is filed as cell-based, human. As to conditions: 5 µM GC4419 for 5 days. As to the method:
MCF7-MnSOD^K68Q cells (in FIGS. 17a and 17b) and T47D-MnSOD^K68Q cells (in FIGS. 17c and 17d) were treated with 5 µM GC4419 and/or 1 µM 4-hydroxy-Tam for 5 days, and then stained for Ki-67 as well as DAPI. Quantifications of average Ki-67 intensity are shown in the bar graphs. In FIG. 17e, MCF7 and MCF7-HTR cells were implanted into both hind limbs of nude mice and tumor volumes were measured every 3 days for 6 weeks and the number of tumors that successfully implanted versus the total number of mice infected with MCF7 and MCF7-HTR as well as the average tumor weight and tumor size are shown. Representative images are shown. All experiments were done in triplicate. Error bars represent ± 1 SEM. ***p < 0.001.
Cells seeded on glass coverslips were fixed in 4% paraformaldehyde and then blocked with 1% BSA and 10% normal goat serum in 1x PBS. Cells were incubated with anti-Ki-67 (c-bioscience) antibody in 1x PBS followed by incubation with goat anti-rabbit IgG conjugated with Alexa Fluor 647 (Invitrogen) in 1x PBS with 5% goat serum. Cells were washed in 1x PBS, mounted, and imaged with a fluorescence microscope. Fluorescence images were captured using a laser scanning confocal microscope (Nikon A1 R). The paired images in all the figures were collected at the same gain and offset settings. Post-collection processing was applied uniformly to all paired images.

Regarding `[Cl][Mn][Cl].c1cc2nc(c1)CN[C@H]1CCCC[C@@H]1NCCN[C@H]1CCCC[C@@H]1NC2` [GC4419], the “Ki-67 IHC staining” value is “reversed the increase in Ki-67 IHC staining”.
